Reference: patent US11529350B2, “Tyrosine kinase non-receptor 1 (TNK1) inhibitors and uses thereof” (Sumitomo Pharma Oncology, Inc., priority 2019, dated 2022)

What was measured:
[1] = tested on: phospho-STAT5 in L540 cells; assay: In vitro pSTAT5 assay (ELISA) in L540 cells; format: cell-based; conditions: Homo sapiens, L-540, 24 hours, normalized to cell viability, read-out: P-STAT5 Assay IC50
Procedure: The L540 cell line harbors a truncating mutation in the C-terminal regulatory region of the protein. As a consequence, TNK1 in L540 cells is constitutively active in phosphorylating key proteins, including STAT5. In TNK1 wild-type conditions (e.g., K562 CML cells), STAT5 phosphorylation is achieved in a TNK1-independent fashion. As such, reductions in phospho-STAT5 signal specific to the L540 cells are a good readout of TNK1 inhibitor function.
Methods: The in vitro pSTAT5 assay was performed with STAT5 AB (pY964/699) SimpleStep ELISA Kit (Abcam No. ab176656) according to the manufacturer's protocol. Briefly, L540 cells were grown in RPMI1640 media under standard culture conditions (10% FBS with penicillin/streptomycin). To assess test compound effects, cells were plated in 96 well plates (250,000 cells/mL) and allowed to grow overnight. Cells were subsequently treated with varying concentrations of test compound for 24 hours, before being harvested and interrogated with the STAT5 AB (pY964/699) SimpleStep ELISA Kit according to the manufacturer's protocol. Phospho-STAT5 signal was normalized to cell viability, as assessed by the CellTiter-Glo assay (Promega, Cat. No. G7570) on treated cells. TNK1 inhibitor IC50s were determined using Graphpad Prism software on normalized phospho-STAT5 measurements.

TNK1 = molecular target: T1, TNK1 (Homo sapiens, UniProt Q13470); assay: RBC HotSpot Kinase Assay; format: biochemical; parameters: purchased Reaction Biology Corp., Malvern, Pa; conditions: ATP 10 μM
T1 sequence (Q13470 1-666): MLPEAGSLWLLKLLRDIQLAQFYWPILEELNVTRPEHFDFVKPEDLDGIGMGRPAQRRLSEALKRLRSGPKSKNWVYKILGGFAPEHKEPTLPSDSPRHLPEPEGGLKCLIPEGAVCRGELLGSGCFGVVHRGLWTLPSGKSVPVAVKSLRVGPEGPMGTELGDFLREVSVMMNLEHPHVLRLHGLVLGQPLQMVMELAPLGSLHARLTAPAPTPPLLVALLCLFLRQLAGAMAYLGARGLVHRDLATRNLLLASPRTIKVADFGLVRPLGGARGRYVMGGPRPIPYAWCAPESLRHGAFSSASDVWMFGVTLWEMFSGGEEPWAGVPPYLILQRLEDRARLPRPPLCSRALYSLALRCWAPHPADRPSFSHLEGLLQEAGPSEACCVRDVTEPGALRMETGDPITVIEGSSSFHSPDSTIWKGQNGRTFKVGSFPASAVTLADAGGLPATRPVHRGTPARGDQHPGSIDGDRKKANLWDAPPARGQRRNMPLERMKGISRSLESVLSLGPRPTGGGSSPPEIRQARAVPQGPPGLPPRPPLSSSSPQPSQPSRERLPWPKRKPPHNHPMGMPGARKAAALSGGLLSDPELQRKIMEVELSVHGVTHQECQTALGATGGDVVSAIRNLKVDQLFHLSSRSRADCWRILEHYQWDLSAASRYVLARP
Procedure: The RBC HotSpot Kinase assay (Reaction Biology Corp., Malvern, Pa.) was used to evaluate the ability of test compounds to modulate (e.g., inhibit) the enzymatic activity of human TNK1 (UniProt Accession No. Q13470) in the following reaction:
Reagent: Base Reaction buffer; 20 mM Hepes (pH 7.5), 10 mM MgCl2, 1 mM EGTA, 0.02% Brij35, 0.02 mg/ml BSA, 0.1 mM Na3VO4, 2 mM DTT, 1% DMSO. Required cofactors were added individually to each kinase reaction.
Compound handling: Test compounds were dissolved in 100% DMSO to specific concentration. The serial dilution was conducted by Integra Viaflo Assist in DMSO.
1. Prepared substrate (peptide substrate, poly[Glu:Tyr] (4:1), 0.2 mg/ml; ATP 10 μM) in freshly prepared Reaction Buffer;
2. Delivered any required cofactors to the substrate solution;
3. Delivered kinase (TNK1) into the substrate solution and gently mixed;
4. Delivered compounds in 100% DMSO into the kinase reaction mixture by Acoustic technology (Echo550; nanoliter range), incubated for 20 minutes at room temperature;
5. Delivered ^33P-ATP (specific activity 10 μCi/μl) into the reaction mixture to initiate the reaction;
6. Incubated for 2 hours at room temperature;
7. Detected radioactivity by filter-binding method;
8. Kinase activity data were expressed as the percent remaining kinase activity in test samples compared to vehicle (dimethyl sulfoxide) reactions. IC50 values and curve fits were obtained using Prism (GraphPad Software).

Row | IC50 (TNK1) [nM] | SMILES | IC50 [1] [nM]
1 | < 5 | CN1CCN(c2c(Cl)cc(Nc3ncc(Cl)c(Nc4cccnc4N4CCCC4=O)n3)c3ccccc23)CC1 [Example No. 18, 1-(3-((5-chloro-2-((3-chloro-4-(4-methylpiperazin-1-yl)naphthalen-1-yl)amino)pyrimidin-4-yl)amino)pyridin-2-yl)pyrrolidin-2-one] | < 5
2 | < 5 | COc1cc(N2CCN(C)CC2)c(Cl)cc1Nc1ncc(Cl)c(Nc2cccnc2N2CCNC2=O)n1 [Example No. 21, 1-(3-((5-chloro-2-((5-chloro-2-methoxy-4-(4-methylpiperazin-1-yl)phenyl)amino)pyrimidin-4-yl)amino)pyridin-2-yl)imidazolidin-2-one] | < 5
3 | < 5 | CN1CCN(c2ccc(Nc3ncc(Cl)c(Nc4cccnc4N4CCCC4=O)n3)cc2)CC1 [compound 1, 1-(3-((5-chloro-2-((4-(4-methylpiperazin-1-yl)phenyl)amino)pyrimidin-4-yl)amino)pyridin-2-yl)pyrrolidin-2-one] | < 5
4 | < 5 | COc1cc(N2CCN(C)CC2)ccc1Nc1ncc(Cl)c(Nc2cccnc2N2CCCC2=O)n1 [compound 2, 1-(3-((5-chloro-2-((2-methoxy-4-(4-methylpiperazin-1-yl)phenyl)amino)pyrimidin-4-yl)amino)pyridin-2-yl)pyrrolidin-2-one] | < 5
5 | 15 to 50 | CCOc1cc(N2CCN(C)CC2)ccc1Nc1ncc(Cl)c(Nc2cccnc2N(C)C)n1 [compound 3, 5-chloro-N^4-(2-(dimethylamino)pyridin-3-yl)-N^2-(2-ethoxy-4-(4-methylpiperazin-1-yl)phenyl)pyrimidine-2,4-diamine] | 5 to 50
6 | 15 to 50 | CC(C)Oc1cc(N2CCN(C)CC2)ccc1Nc1ncc(Cl)c(Nc2cccnc2N(C)C)n1 [compound 4, 5-chloro-N^4-(2-(dimethylamino)pyridin-3-yl)-N^2-(2-isopropoxy-4-(4-methylpiperazin-1-yl)phenyl)pyrimidine-2,4-diamine] | > 50
7 | 5 to 15 | CN1CCN(c2ccc(Nc3ncc(Cl)c(Nc4cccnc4N(C)C)n3)cc2)CC1 [compound 5, 5-chloro-N^4-(2-(dimethylamino)pyridin-3-yl)-N^2-(4-(4-methylpiperazin-1-yl)phenyl)pyrimidine-2,4-diamine] | < 5
8 | < 5 | COc1cc(N2CCN(C)CC2)c(C)cc1Nc1ncc(Cl)c(Nc2cccnc2N2CCNC2=O)n1 [compound 9, 1-(3-((5-chloro-2-((2-methoxy-5-methyl-4-(4-methylpiperazin-1-yl)phenyl)amino)pyrimidin-4-yl)amino)pyridin-2-yl)imidazolidin-2-one] | < 5
9 | < 5 | COc1cc(N2CCN(C)CC2)c(C)cc1Nc1ncc(Br)c(Nc2cccnc2N(C)C)n1 [compound 10, 5-bromo-N^4-(2-(dimethylamino)pyridin-3-yl)-N^2-(2-methoxy-5-methyl-4-(4-methylpiperazin-1-yl)phenyl)pyrimidine-2,4-diamine] | < 5

Row | SMILES | IC50 (TNK1) [nM] | IC50 [1] [nM]
10 | COc1cc(N2CCN(C)CC2)c(Cl)cc1Nc1ncc(Cl)c(Nc2cccnc2N2CCCC2=O)n1 [Example No. 13, 1-(3-((5-chloro-2-((5-chloro-2-methoxy-4-(4-methylpiperazin-1-yl)phenyl)amino)pyrimidin-4-yl)amino)pyridin-2-yl)pyrrolidin-2-one] | < 5 | < 5
